This is an account of results in patent US7799770B2, “Solid body forms of mesoprogestin 11β-{4E-(hydroxyiminomethyl)-phenyl}-17α methoxymethyl-17β-methoxy-estra-4,9-dien-3-one” (Bayer Schering Pharma AG, priority 2000, dated 2010).

One data set in a line: Solubility in toluene. Type of data set: physicochemical. From the text:
The production of the solvate form that is suitable for the solid final form of the oxime can be associated, according to the invention, with the separation of the Z-isomer and the dioximes. By a specific use of the thermodynamic instability of suitable solvates, preferably the solvate of methyl-tert-butyl ether (MTBE) in a solvent environment that is suitable for this purpose, complete dissolution of the solvate lattice is possible far above the solubility limit and even close to room temperature. […] A so-called cold melting is carried out. This state can be kept stable by adding suitable solvents as recrystallization inhibitors for technical applications. The supersaturation state can be stabilized for hours in toluene solution by adding only 5% by volume of methanol. Then, by adding solvating agent-solvent (MTBE) at suitable concentration (e.g., 100-130% by volume of MTBE, relative to the toluene that is used), the solvate lattice is built up again, whereby the contaminants remain in solution for the most part.

Data set [1] relates to antiglucocorticoidal activity. Particulars: according to EP-A-0 648 778 or DE-A-43 32 283; cited from earlier work.
The target in another data set is T1, progesterone receptor (Homo sapiens, UniProt P06401).
T1 sequence (P06401 1-933): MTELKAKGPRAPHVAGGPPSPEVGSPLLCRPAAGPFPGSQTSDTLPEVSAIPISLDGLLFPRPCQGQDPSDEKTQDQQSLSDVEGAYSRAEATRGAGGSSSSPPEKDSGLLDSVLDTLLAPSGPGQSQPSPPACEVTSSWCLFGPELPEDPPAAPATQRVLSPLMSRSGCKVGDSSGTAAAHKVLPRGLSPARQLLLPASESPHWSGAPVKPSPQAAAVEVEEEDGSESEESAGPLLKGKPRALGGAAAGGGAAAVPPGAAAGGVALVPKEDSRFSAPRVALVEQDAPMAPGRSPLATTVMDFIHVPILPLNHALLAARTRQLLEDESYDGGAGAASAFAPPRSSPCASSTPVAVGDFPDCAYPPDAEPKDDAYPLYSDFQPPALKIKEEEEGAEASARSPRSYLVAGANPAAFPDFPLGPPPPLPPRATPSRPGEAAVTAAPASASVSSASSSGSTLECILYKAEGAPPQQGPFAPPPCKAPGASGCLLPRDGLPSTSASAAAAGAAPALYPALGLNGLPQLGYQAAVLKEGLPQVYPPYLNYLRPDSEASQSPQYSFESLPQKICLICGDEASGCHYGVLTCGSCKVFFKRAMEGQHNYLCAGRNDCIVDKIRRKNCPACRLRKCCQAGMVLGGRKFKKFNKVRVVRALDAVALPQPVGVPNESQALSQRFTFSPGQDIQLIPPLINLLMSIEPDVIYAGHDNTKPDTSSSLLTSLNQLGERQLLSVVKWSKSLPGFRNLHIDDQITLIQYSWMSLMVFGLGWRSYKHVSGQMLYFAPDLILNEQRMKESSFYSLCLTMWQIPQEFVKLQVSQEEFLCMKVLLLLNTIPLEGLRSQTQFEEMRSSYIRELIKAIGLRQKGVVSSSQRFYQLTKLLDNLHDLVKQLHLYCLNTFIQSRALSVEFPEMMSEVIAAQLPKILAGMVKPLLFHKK
Particulars: according to EP-A-0 648 778 or DE-A-43 32 283; cited from earlier work.

Data set [2] can be described thus: Solubility studies (saturation solubility in water without and with 0.25% SDS). Type of data set: physicochemical. The method, then:
200 mg of substance was added at 25° C. into 50 ml of water (without and with 0.25% SDS (sodium lauryl sulfate)). Samples were taken after 0.5 hour, 2 hours, 5 hours and 24 hours.
Sampling: 0.45 μm filter attachment, dilution 1:1 with MeOH, HPLC.

Data set [3] can be described thus: Shelf life / accelerated ICH-stability test. Type of data set: physicochemical. The protocol: In FIG. 5, an x-ray-powder diffractogram of amorphous 11β-[4E-(hydroxyiminomethyl)phenyl]-17α-methoxymethyl-17β-methoxy-estra-4,9-dien-3-one is depicted at time 0 (start), after 12 months at 25° C. and after 12 months at 40° C.
(§1) By the stability, negative influences of such conversions on the bio-availability of the active ingredient are avoided.

Data set [4] is described as follows: Stability of the physical structure during pharmaceutical processing (wet granulation, pelletizing). Format: physicochemical.
From the text: as §1

As for `COC[C@]1(OC)CC[C@H]2[C@@H]3CCC4=CC(=O)CCC4=C3[C@@H](c3ccc(/C=N/O)cc3)C[C@@]21C` [MTBE solvate, 11β-[4E-(hydroxyiminomethyl)phenyl]-17α-methoxymethyl-17β-methoxy-estra-4,9-dien-3-one], the solubility in toluene in “Solubility in toluene” was 3.3 % by weight.
Regarding `COC[C@]1(OC)CC[C@H]2[C@@H]3CCC4=CC(=O)CCC4=C3[C@@H](c3ccc(/C=N/O)cc3)C[C@@]21C` [Oxime J867, 11β-[4E-(hydroxyiminomethyl)phenyl]-17α-methoxymethyl-17β-methoxy-estra-4,9-dien-3-one], the “antiglucocorticoidal activity compared with RU 486” value in data set [1] is reported as “significantly reduced”. In addition, at progesterone receptor, the “activity on the progesterone receptor compared with RU 486 (mifepristone)” value is recorded as “same activity as RU 486 (mifepristone)”.
Take `COC[C@]1(OC)CC[C@H]2[C@@H]3CCC4=CC(=O)CCC4=C3[C@@H](c3ccc(/C=N/O)cc3)C[C@@]21C` [amorphous form of oxime J867, 11β-[4E-(hydroxyiminomethyl)phenyl]-17α-methoxymethyl-17β-methoxy-estra-4,9-dien-3-one]: the “time for which the high supersaturation level remains stable” value in data set [2] (in surfactant solution (sodium lauryl sulfate)) is on record as “stable for several hours”; in data set [2] (in water), “over 24 hours”. Moreover, in data set [3] (after 12 months, 40° C., 75% relative humidity), the “signs of recrystallization and/or chemical decomposition of the amorphous structure” value is “does not show any signs of a recrystallization and/or chemical decomposition”. Also, the “physical structure during pharmaceutical processing (conversion amorphous to highly crystalline, E/Z isomerization)” value in data set [4] is “remains stable”.
On to `COC[C@]1(OC)CC[C@H]2[C@@H]3CCC4=CC(=O)CCC4=C3[C@@H](c3ccc(/C=N/O)cc3)C[C@@]21C` [highly crystalline form of oxime J 867, 11β-[4E-(hydroxyiminomethyl)phenyl]-17α-methoxymethyl-17β-methoxy-estra-4,9-dien-3-one ansolvate], for which the “chemical stability compared with the amorphous form” value in data set [3] (especially under stress (high temperatures and humidities)) is “higher than that of the amorphous form”.
